{"source": "ChEMBL document CHEMBL5465560", "about": "“Selectivity Literature for EUbOPEN Chemogenomic Library” (2024)", "key": {"[1]": {"target": "Glycogen synthase kinase-3 alpha (Homo sapiens, UniProt P49840)", "sequence (P49840 2-483 limits assumed)": "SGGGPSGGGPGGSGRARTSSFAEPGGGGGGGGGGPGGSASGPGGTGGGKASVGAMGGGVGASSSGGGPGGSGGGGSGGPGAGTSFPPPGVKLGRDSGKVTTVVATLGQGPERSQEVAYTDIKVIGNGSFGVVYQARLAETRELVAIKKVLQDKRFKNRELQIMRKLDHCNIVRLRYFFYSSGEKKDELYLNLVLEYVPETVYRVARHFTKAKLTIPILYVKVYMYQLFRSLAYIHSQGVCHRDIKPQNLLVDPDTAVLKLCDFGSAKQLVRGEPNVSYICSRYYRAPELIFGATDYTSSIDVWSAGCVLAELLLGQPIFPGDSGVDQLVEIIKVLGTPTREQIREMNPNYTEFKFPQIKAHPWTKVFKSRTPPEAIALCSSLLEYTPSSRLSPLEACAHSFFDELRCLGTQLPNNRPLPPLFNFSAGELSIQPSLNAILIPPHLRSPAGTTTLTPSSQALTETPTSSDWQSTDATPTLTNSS", "conditions": "at 10 µM"}, "[2]": {"target": "T1, Mitogen-activated protein kinase kinase kinase kinase 2 (Homo sapiens) (UniProt Q12851)", "T1 sequence (whole entry)": "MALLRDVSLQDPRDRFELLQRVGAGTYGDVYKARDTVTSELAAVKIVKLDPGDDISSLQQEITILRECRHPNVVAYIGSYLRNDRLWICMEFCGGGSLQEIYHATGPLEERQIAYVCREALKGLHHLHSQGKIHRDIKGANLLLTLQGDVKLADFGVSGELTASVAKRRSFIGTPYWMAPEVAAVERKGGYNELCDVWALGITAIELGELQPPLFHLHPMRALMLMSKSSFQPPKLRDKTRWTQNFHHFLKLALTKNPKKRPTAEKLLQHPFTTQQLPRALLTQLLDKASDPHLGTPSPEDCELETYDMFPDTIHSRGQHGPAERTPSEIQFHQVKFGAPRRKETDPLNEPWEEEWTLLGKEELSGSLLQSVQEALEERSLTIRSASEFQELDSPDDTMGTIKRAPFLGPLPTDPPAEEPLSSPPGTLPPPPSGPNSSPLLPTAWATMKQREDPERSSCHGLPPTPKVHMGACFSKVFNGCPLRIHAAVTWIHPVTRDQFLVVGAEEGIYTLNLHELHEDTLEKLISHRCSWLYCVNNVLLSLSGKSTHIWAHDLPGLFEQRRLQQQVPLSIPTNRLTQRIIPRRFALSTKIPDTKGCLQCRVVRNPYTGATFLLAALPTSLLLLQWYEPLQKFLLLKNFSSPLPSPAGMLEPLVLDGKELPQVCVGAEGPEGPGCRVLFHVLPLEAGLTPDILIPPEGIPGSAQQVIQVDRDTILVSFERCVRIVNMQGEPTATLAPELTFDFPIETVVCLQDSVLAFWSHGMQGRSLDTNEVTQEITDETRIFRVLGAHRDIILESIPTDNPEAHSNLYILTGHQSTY", "experiment": "Selectivity interaction (ActivX KiNativ screen (kinase selectivity in THP-1 cell lysates)) EUB0000639a MAP4K2", "assay_type": "subcellular", "conditions": "lysate, at 5 µM"}, "[3]": {"target": "T2, Casein kinase I isoform alpha-like (Homo sapiens) (UniProt Q8N752)", "T2 sequence (whole entry)": "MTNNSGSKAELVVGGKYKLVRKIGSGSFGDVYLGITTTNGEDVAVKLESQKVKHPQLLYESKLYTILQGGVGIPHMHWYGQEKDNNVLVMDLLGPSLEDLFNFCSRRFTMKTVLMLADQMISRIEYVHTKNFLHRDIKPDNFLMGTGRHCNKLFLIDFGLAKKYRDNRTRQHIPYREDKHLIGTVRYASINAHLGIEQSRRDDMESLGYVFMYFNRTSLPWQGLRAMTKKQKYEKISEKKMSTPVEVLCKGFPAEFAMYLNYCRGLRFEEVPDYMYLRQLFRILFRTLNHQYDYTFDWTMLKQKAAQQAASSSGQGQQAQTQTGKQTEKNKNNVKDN", "experiment": "Selectivity interaction (Ambit KINOMEscan and KiNATiv profiling in Jurkat cells) EUB0000090b CSNK1A1L", "assay_type": "cell-based", "conditions": "at 1 µM"}, "[4]": {"target": "T3, Mitogen-activated protein kinase kinase kinase 5 (Homo sapiens) (UniProt Q99683)", "T3 sequence (whole entry)": "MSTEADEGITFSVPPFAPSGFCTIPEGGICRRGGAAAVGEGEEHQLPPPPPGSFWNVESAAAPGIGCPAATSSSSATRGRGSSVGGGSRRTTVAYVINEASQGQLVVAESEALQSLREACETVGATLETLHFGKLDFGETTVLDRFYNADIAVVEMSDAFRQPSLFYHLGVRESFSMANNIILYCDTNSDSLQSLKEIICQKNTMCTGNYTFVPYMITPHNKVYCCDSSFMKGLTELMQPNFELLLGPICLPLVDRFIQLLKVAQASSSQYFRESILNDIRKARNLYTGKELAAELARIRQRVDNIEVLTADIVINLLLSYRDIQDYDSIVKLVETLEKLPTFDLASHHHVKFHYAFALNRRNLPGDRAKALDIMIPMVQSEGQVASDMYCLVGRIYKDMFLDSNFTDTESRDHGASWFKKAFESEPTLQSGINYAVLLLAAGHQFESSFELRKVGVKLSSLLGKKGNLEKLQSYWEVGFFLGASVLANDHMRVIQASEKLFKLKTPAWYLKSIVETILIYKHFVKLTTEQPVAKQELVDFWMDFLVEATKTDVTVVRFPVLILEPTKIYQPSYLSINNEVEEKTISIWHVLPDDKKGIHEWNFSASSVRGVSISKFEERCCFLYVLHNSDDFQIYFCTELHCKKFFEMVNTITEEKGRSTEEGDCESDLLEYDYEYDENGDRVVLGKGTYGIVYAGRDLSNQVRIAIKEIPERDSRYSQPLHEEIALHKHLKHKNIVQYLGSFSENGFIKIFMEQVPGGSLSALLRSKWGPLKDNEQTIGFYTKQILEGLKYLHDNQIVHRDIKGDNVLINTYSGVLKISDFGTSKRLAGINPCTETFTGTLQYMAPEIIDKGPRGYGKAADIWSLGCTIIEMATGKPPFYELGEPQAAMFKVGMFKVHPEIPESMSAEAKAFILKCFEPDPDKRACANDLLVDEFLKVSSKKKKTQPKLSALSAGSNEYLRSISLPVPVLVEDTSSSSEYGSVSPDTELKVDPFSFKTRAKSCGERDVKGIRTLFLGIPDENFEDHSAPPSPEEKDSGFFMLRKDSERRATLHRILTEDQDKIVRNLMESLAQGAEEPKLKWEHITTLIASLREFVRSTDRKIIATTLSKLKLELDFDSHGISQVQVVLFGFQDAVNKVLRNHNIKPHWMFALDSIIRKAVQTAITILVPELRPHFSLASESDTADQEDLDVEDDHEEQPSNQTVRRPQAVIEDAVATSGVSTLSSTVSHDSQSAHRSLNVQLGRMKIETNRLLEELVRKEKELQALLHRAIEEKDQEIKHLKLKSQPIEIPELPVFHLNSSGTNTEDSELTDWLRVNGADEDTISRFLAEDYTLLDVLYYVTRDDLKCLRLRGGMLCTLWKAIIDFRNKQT", "experiment": "Selectivity interaction (ActivX KiNativ screen (ex vivo kinase selectivity in human PBMCs)) EUB0001619a MAP3K5", "assay_type": "cell-based", "conditions": "PBMC, at 1 µM"}}}
{"smiles": "CCN(CC)CCCCNc1ncc2cc(-c3cc(OC)cc(OC)c3)c(NC(=O)NC(C)(C)C)nc2n1", "values": [{"measurement": "% of control", "setting": "[1]", "value": 100, "unit": "%"}]}
{"smiles": "CC[C@@H]1[C@H](F)C(=O)N[C@@H]1COc1nccc2cc(C(N)=O)c(OC)cc12", "note": "[ZIMLOVISERTIB]", "values": [{"measurement": "% of inhibition", "setting": "[2]", "value": -1.3, "unit": "%"}]}
{"smiles": "CN(C)C/C=C/C(=O)Nc1ccc(C(=O)N2CCCC(Nc3ncc(Cl)c(-c4c[nH]c5ccccc45)n3)C2)cc1", "note": "(centres undefined)", "values": [{"measurement": "% of control", "setting": "[3]", "value": 65, "unit": "%"}]}
{"smiles": "N#Cc1cccc(-c2c[nH]c3ncnc(N4CCOCC4)c23)c1", "values": [{"measurement": "% of inhibition", "setting": "[4]", "value": 21, "unit": "%"}]}
